Counter-ions that a name gives are not always drawn.
Target: Human plasma kallikrein (Homo sapiens (Human), UniProt P03952)
Assay: In vitro plasma kallikrein inhibition assay (chromogenic substrate D-Pro-Phe-Arg-pNa, absorbance at 405 nm, IC50 determination)
Format: biochemical
Conditions: not given

Human plasma kallikrein, sequence (P03952 391-638): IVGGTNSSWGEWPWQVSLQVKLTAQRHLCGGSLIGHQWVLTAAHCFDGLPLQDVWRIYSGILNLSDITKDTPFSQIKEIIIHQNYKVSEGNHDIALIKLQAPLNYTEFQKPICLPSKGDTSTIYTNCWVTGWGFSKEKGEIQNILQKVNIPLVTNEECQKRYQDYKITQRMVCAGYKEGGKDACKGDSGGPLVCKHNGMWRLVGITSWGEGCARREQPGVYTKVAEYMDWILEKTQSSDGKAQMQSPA
Human plasma kallikrein, sequence (P03952 20-390 partner): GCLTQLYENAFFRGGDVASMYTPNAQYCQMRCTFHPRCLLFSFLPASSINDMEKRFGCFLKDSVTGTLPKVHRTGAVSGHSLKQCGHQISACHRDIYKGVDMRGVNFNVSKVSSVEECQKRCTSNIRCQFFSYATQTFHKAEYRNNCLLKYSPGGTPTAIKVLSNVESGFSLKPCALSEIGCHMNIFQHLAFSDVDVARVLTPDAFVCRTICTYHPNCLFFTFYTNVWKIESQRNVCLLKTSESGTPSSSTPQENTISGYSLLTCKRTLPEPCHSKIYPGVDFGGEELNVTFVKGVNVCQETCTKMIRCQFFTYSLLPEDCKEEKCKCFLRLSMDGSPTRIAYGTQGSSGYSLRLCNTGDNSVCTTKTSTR

Row | Molecule | KLKB1 pIC50
1 | CON=C(N)c1ccc(CNC(=O)c2ccc3c(c2)[C@@H]2O[C@H]3c3ccc(-c4ccc(Cl)s4)cc32)cc1 [Example 251, (1S,8R)-12-(5-chlorothiophen-2-yl)-N-({4-[N′-methoxycarbamimidoyl]phenyl}methyl)-15-oxatetracyclo[6.6.1.0^2,^7.0^9,1^4] pentadeca-2,4,6,9,11,13-hexaene-4-carboxamide] | 4
2 | CON=C(N)c1ccc(CNC(=O)c2ccc3c(c2)[C@@H]2O[C@H]3c3ccc(C4CC4)cc32)cc1 [Example 272, (1R,8S)-12-cyclopropyl-N-({4-[N′-methoxy-carbamimidoyl]phenyl}methyl)-15-oxatetracyclo[6.6.1.0^2,^7.0^9,1^4] pentadeca-2,4,6,9,11,13-hexaene-4-carboxamide] | 5.61
3 | (±)-N-[(4-carbamimidoylphenyl) methyl]-12-(4- fluorophenyl)-8-methyl-15- oxatetracyclo- [6.6.1.0^2,^7.0^9,1^4]pentadeca- 2,4,6,9,11,13-hexaene-4- carboxamide [Example 346] | 7.26
4 | CCc1cc2c(cc1-c1ccc(F)cc1F)C1OC2c2ccc(C(=O)NCc3c(C)cc(N)nc3C)cc21 (racemic) [Example 321, (±)-N-[(6-amino-2,4-dimethyl-pyridin-3-yl)methyl]-12-(2,4-difluorophenyl)-11-ethyl-15-oxatetracyclo[6.6.1.0^2,^7.0^9,1^4] pentadeca-2,4,6,9(14),10,12-hexaene-4-carboxamide and (±)-N-[(6-amino-2,4-dimethylpyridin-3-yl)methyl]-11-(2,4-difluorophenyl)-12-ethyl-15-oxatetracyclo [6.6.1.0^2,^7.0^9,1^4]pentadeca-2,4,6,9(14),10,12-hexaene-4-carboxamide] | 8.09

Same assay, conditions: read-out: KLKB1 pIC50 (converted)

Row | IC50 | Molecule
5 | 4.9 nM | N=C(N)c1ccc(CNC(=O)c2ccc3c(c2)C2OC3c3cc(C4CC4)c(C4CC4)cc32)cc1 (racemic) [Example 316, (±)-N-[(4-carbamimidoyl-phenyl)methyl]-11,12-dicyclopropyl-15-oxatetracyclo [6.6.1.0^2,^7.0^9,1^4]-pentadeca-2,4,6,9,11,13-hexaene-4-carboxamide]
6 | 100000 nM | N#Cc1cc(NC(=N)c2ccc3c(c2)[C@@H]2O[C@H]3c3ccc(-c4ccc(F)cc4F)cc32)ccc1F (single isomer, unassigned) [Example 283]
7 | 234 nM | CCN(c1ccc2c(c1)[C@H]1O[C@@H]2c2ccc(C(=O)NCc3c(C)cc(N)nc3C)cc21)c1ccccc1F (single isomer, unassigned) [Example 239]
8 | 1620 nM | COc1cc2c(cc1OC)C1OC2c2ccc(C(=O)NCc3c(C)cc(N)nc3C)cc21 (racemic) [Example 335, (±)-N-[(6-amino-2,4-dimethylpyridin-3-yl)methyl]-11,12-dimethoxy-15-oxatetracyclo[6.6.1.0^2,^7.0^9,1^4] pentadeca-2,4,6,9(14),10,12-hexaene-4-carboxamide]
9 | 1 nM | N=C(N)c1cc(F)c(CNC(=O)c2ccc3c(c2)[C@@H]2O[C@H]3c3ccc(CCC(F)(F)F)cc32)c(F)c1 (single isomer, unassigned) [Example 296]
10 | 2 nM | N=C(N)c1ccc(CNC(=O)c2ccc3c(c2)[C@@H]2O[C@H]3c3ccc(C4CC4)cc32)cc1 (single isomer, unassigned) [Example 259]
11 | 1 nM | N=C(N)c1ccc(CNC(=O)c2ccc3c(c2)[C@@H]2O[C@H]3c3ccc(-c4ccc(F)cc4)cc32)c(F)c1 (single isomer, unassigned) [Example 329]
12 | 17.4 nM | Cc1cc(N)nc(C)c1CNC(=O)c1ccc2c(c1)C1OC2c2cc3c(cc21)C(=O)N(C)C3=O (racemic) [Example 318, (±)-N-[(6-amino-2,4-dimethyl-pyridin-3-yl)methyl]-6-methyl-5,7-dioxo-18-oxa-6-azapentacyclo [9.6.1.0^2,1^0.0^4,^8.0^12,1^4]octadeca-2(10),3,8,12,14,16-hexaene-14-carboxamide]
13 | 1 nM | Cc1cc(C(=N)N)ccc1CNC(=O)c1ccc2c(c1)[C@@H]1O[C@H]2c2ccc(-c3ccc(F)cc3F)cc21 (single isomer, unassigned) [Example 306]
14 | 5.89 nM | COc1cc(CNC(=O)c2ccc3c(c2)[C@@H]2O[C@H]3c3ccc(-c4ccc(F)cc4F)cc32)ccc1C(=N)N (single isomer, unassigned) [Example 338]
15 | 10700 nM | Cc1nc(N)cc(C(F)(F)F)c1CNC(=O)c1ccc2c(c1)[C@@H]1O[C@H]2c2ccc(-c3ccc(F)cc3F)cc21 (single isomer, unassigned) [Example 246]
16 | 186 nM | Cc1cc(N)nc(C)c1CNC(=O)c1ccc2c(c1)[C@@H]1O[C@H]2c2ccc(N(c3cccc(F)c3)S(C)(=O)=O)cc21 (single isomer, unassigned) [Example 260]
17 | 34.7 nM | Cc1nc(N)cc(C2CC2)c1CNC(=O)c1ccc2c(c1)[C@@H]1O[C@H]2c2ccc(-c3cc[n+]([O-])cc3F)cc21 (single isomer, unassigned) [Example 278]
18 | 42700 nM | O=C(N[C@H]1CCNC1)c1ccc2c(c1)[C@@H]1O[C@H]2c2ccc(-c3ccc(F)cc3F)cc21 (single isomer, unassigned) [Example 325]

Continued, molecule first:

Row | Molecule | IC50
19 | N=C(N)c1ccc(CNC(=O)c2ccc3c(c2)[C@@H]2O[C@H]3c3ccc(-c4ccc(F)cc4)cc32)cc1 (single isomer, unassigned) [Example 201] | 1 nM
20 | Cc1cc2c(c(C)c1CNC(=O)c1ccc3c(c1)C1OC3c3ccc(-c4cccc(F)c4F)cc31)CNC2 (racemic) [Example 100, trifluoroacetate salt] | 6170 nM
21 | CCOc1cc(N)nc(C)c1CNC(=O)c1ccc2c(c1)C1OC2c2ccc(Cn3cccn3)cc21 (racemic) [Example 133, (±)-N-[(6-amino-4-ethoxy-2-methylpyridin-3-yl)methyl]-12-[(1H-pyrazol-1-yl)methyl]-15-oxatetracyclo[6.6.1.0^2,^7.0^9,1^4] pentadeca-2,4,6,9,11,13-hexaene-4-carboxamide] | 11 nM
22 | N=C(N)c1ccc(CNC(=O)c2ccc3c(c2)[C@@H]2O[C@H]3c3ccc(Oc4cccc(F)c4)cc32)cc1 (single isomer, unassigned) [Example 231] | 33.9 nM
23 | Cc1cc(N)nc(C)c1CNC(=O)c1ccc2c(c1)[C@@H]1O[C@H]2c2ccc(-c3ccc(Cl)c(F)c3F)cc21 (single isomer, unassigned) [Example 145] | 17.4 nM
24 | Cc1cc(N)nc(C)c1CNC(=O)c1ccc2c(c1)C1OC2c2ccc(Oc3ccc(F)cc3F)cc21 (racemic) [Example 120, (±)-N-[(6-amino-2,4-dimethylpyridin-3-yl)-methyl]-12-(2,4-difluorophenoxy)-15-oxatetra-cyclo[6.6.1.0^2,^7.0^9,1^4] pentadeca-2,4,6,9,11,13-hexaene-4-carboxamide] | 676 nM
25 | N=C(N)c1ccc(CNC(=O)c2ccc3c(c2)[C@@H]2O[C@H]3c3ccc(-c4ccccc4F)cc32)cc1 (single isomer, unassigned) [Example 187] | 1.74 nM
26 | N=C(N)c1ccc(CNC(=O)c2ccc3c(c2)[C@@H]2O[C@H]3c3ccc(-c4ccc(F)cc4F)cc32)cc1F (single isomer, unassigned) [Example 211] | 11.7 nM
27 | Cc1cc(N)nc(C)c1CNC(=O)c1ccc2c(c1)[C@@H]1O[C@H]2c2ccc(C(=O)N(C)c3ccccc3)cc21 (single isomer, unassigned) [Example 194] | 1660 nM
28 | COc1ncccc1-c1ccc2c(c1)[C@H]1O[C@@H]2c2ccc(C(=O)NCc3c(C)cc(N)nc3C)cc21 (single isomer, unassigned) [Example 213] | 676 nM
29 | Cc1cc(N)nc(C)c1CNC(=O)c1ccc2c(c1)[C@@H]1O[C@H]2c2ccc(Oc3ccn(C)n3)cc21 (single isomer, unassigned) [Example 185] | 2240 nM
30 | Cc1cc2c(c(C)c1CNC(=O)c1ccc3c(c1)C1OC3c3ccc(Cn4cccn4)cc31)CNC2 (racemic) [Example 161, (±)-N-[(4,6-dimethyl-2,3-dihydro-1H-isoindol-5-yl)methyl]-12-[(1H-pyrazol-1-yl)methyl]-15-oxatetracyclo[6.6.1.0^2,^7.0^9,1^4]-pentadeca-2,4,6,9,11,13-hexaene-4-carboxamide] | 1290 nM
31 | Cc1cc(N)nc(C)c1CNC(=O)c1ccc2c(c1)[C@@H]1O[C@H]2c2ccc(Cn3cc(Cl)cn3)cc21 (single isomer, unassigned) [Example 179] | 1 nM
32 | COc1cc(N)nc(C)c1CNC(=O)c1ccc2c(c1)C1OC2c2ccc(-c3ccc(C)cc3C#N)cc21 (racemic) [Example 105] | 15.1 nM
33 | Cc1cc(N)nc(C)c1CNC(=O)c1ccc2c(c1)C1OC2c2ccc(C[N+]3([O-])CCOCC3)cc21 (racemic) [Example 50] | 3550 nM
34 | Cc1cc(N)nc(C)c1CNC(=O)c1ccc2c(c1)C1OC2c2ccc(-c3ncc(F)cc3F)cc21 (racemic) [Example 116, (±)-N-[(6-amino-2,4-dimethylpyridin-3-yl)-methyl]-12-(3,5-difluoropyridin-2-yl)-15-oxatetracyclo[6.6.1.0^2,^7.0^9,1^4] pentadeca-2,4,6,9,11,13-hexaene-4-carboxamide] | 45.7 nM
35 | Cc1ccc(C#N)c(-c2ccc3c(c2)C2OC3c3ccc(C(=O)NCc4c(C)cc(N)nc4C)cc32)c1 (racemic) [Example 156, (±)-N-[(6-amino-2,4-dimethylpyridin-3-yl)-methyl]-12-(2-cyano-5-methylphenyl)-15-oxatetracyclo[6.6.1.0^2,^7.0^9,1^4] pentadeca-2,4,6,9,11,13-hexaene-4-carboxamide] | 93.3 nM
36 | Cc1cc(N)nc(C)c1CNC(=O)c1ccc2c(c1)[C@@H]1O[C@H]2c2ccc(-c3ccc(F)cc3Cl)cc21 (single isomer, unassigned) [Example 176] | 67.6 nM
37 | Cc1cc(N)nc(C)c1CNC(=O)c1ccc2c(c1)C1OC2c2cc(Nc3ccnn3C)ccc21 (racemic) [Example 54] | 457 nM
38 | Cc1cc(CNC(=O)c2ccc3c(c2)C2OC3c3ccc(-c4ccc(F)cc4F)cc32)c(C)nc1N (racemic) [Example 166, (±)-N-[(6-amino-2,5-dimethylpyridin-3-yl)-methyl]-12-(2,4-difluorophenyl)-15-oxatetracyclo[6.6.1.0^2,^7.0^9,1^4] pentadeca-2,4,6,9,11,13-hexaene-4-carboxamide] | 6760 nM
